In patent publication US4416826A, “Peresters and use thereof” (priority 1980, dated 1983):

Columns and labels:
[1] = Polymerization of methyl methacrylate; conditions: initiator 5 × 10^-2 M, [MMA] = 3.1 M, 25° C., benzene
Experimental: Commercial methyl methacrylate monomer is washed three times with 2% NaOH solution to remove stabilizer. It is then washed with distilled water three times, dried with molecular sieves, and distilled under vacuum before use. Polymerization solutions are prepared in cylindrical tubes which are degassed and sealed. The amount of polymer formed is determined by precipitating the polymer with an excess of methanol, washing with methanol, and filtering through fine sintered crucibles (previously weighed) followed by drying in a vacuum oven. The irradiation condition is the same as that in the decomposition rate example hereinabove.

[2] = Thermal stability / thermal decomposition of peresters in the dark; type: physicochemical; conditions: 110° C., chlorobenzene, dark; initial concn Ia 5.01, Ib 5.15, Ic 5.19 × 10^-2 M
[3] = Photodecomposition kinetics and quantum yields at 366 nm (benzophenone-benzhydrol actinometry); type: physicochemical
Experimental: Kinetic studies are carried out in degassed, sealed tubes by irradiating them with 366 nm light obtained from a Hanovia medium-pressure mercury lamp by combining the Corning Filters 0-52 and 7-60. The decompositions of the […] followed by the carbonyl IR absorption adjacent to the peroxide group (O=COO--) (1770 cm^-1). Benzophenone-benzhydrol redox actinometry are used throughout the study. In particular, a solution of […] (2 mL) in the appropriate solvent is placed in Pyrex tubes (12-mm diameter), degassed, and sealed under vacuum. Three cycles of freeze-thaw removes dissolved oxygen. The tubes are placed in a merry-go-round around a water-cooled light source, removed at different predetermined intervals, and kept frozen in liquid nitrogen in the dark until analysis is done. The estimation of […] done by quantitative IR, monitoring the carbonyl peak at 1770 cm^-1. […] Absorbance is measured with a 0.1 mm NaCl cell against solvent reference. With every run, two tubes containing actinometric solutions (benzophenone (0.1 M) and benzhydrol (0.05 M) in benzene are irradiated.

[4] = Stern-Volmer triplet quenching with naphthalene; type: physicochemical; conditions: CCl4
Source text: All the peresters give linear Stern-Volmer plots when naphthalene is used as triplet quencher.

## CC(C)(C)OOC(=O)c1ccc(C(=O)c2ccccc2)cc1 [Ia, t-Butyl-4-Benzoylperbenzoate]
[1]
  Rate of Polymerization (Rp) of MMA, Rp × 10^5: 8.33 mL^-1 s^-1
[2]
  thermal 1st order dec rate × 10^5: 2.88 M × 10^5 s^-1
  thermal half-life t1/2: 6.7 h
[3]; 366 nm radiation, room temperature
  photodecomposition behaviour, in words: decomposes smoothly at room temperature
[3]; C6 H6, 25° C., 366 nm, I = 6.56 × 10^17 quanta/min, 5.03-6.06 × 10^-2 M, given as kd × 10^4
  apparent first-order photodecomposition rate constant kd × 10^4: 1.84 s^-1
[3]; C6 H6, 366 nm, perester 5.03-6.06 × 10^-2 M
  quantum yield of decomposition (φ of dec): 0.94
[3]; CCl4, 3.56 × 10^-2 M, TBP 3.76 × 10^-2 M
  quantum yield of decomposition (φ of dec): 0.74
[3]; CCl4, 3.56 × 10^-2 M, no TBP
  quantum yield of decomposition (φ of dec): 0.90
[3]; CCl4, 4.78 × 10^-2 M, TBP 5.01 × 10^-2 M
  quantum yield of decomposition (φ of dec): 0.79
[3]; CCl4, 7.16 × 10^-2 M, no TBP
  quantum yield of decomposition (φ of dec): 1.05
[3]; methanol, TBP 5.08 × 10^-2 M, Ia 5.38, Ib 6.15 × 10^-2 M
  quantum yield of decomposition (φ of dec): 0.64
[3]; methanol, no TBP, Ia 5.38, Ib 6.15, Ic 5.10 × 10^-2 M
  quantum yield of decomposition (φ of dec): 2.77
[4]
  quenching constant kq τ: 7.5
